What is called IC50 is the concentration that inhibits the measured activity by half. As usually defined, the AC50 is the concentration at which the activity in the assay is half-maximal. The EC50 is the concentration giving half of the maximal effect.

The source of these data is ChEMBL document CHEMBL1201862, “PubChem BioAssay data set” (2004).

Several values for one entry are separate records, joined by “and”; a condition that tells them apart may be missing. Identical values can stand only once. Activity calls are given as the source filed them.

Test [1] can be described thus: cells. The format is functional, cell-based. To be noted: INS-1E.
A short description of test [2]: IC50 of insulin release inhibition, rat insulinoma INS-1E line, 5 mM glucose, cell-based (AID 1117331). The format is functional.
The nature of test [3]: P. falciparum Dd2 growth inhibitors, dose response, SYBR Green, cherry-picked samples (AID 1159567). Format: functional, cell-based.
Test [4] is described as follows: toxicity to human hepatoma HepG2 cells – cell-based, cherry-picked samples, cytotoxicity control, dose response (AID 1159577). The format is functional.
Test [5] concerns the target G-protein coupled receptor 183 (Homo sapiens, UniProt P32249). The test can be described thus: Dose-response confirmation of small molecule antagonists of the EBI2 receptor via a luminescent beta-arrestin assay. The format is functional.
For another test, the target named is Beta-galactosidase (Escherichia coli, UniProt Q8VNN2). Nature of the test: Dose response counterscreen for EBI2 assay utilizing the enzyme, b-galactosidase. Format: functional. Background: The purpose of a counterscreen is to sort out artefacts and off-target activity.
The target of test [6] is Mitogen-activated protein kinase 10 (Homo sapiens, UniProt P53779). Nature of the test: Dose response biochemical screening assay for inhibitors of c-Jun N-Terminal Kinase 3 (JNK3). [Related pubchem assays: 746 ].
A further test addresses T1, Leucine aminopeptidase (Plasmodium falciparum 3D7, UniProt Q8IL11).
T1 sequence (Q8IL11 whole entry): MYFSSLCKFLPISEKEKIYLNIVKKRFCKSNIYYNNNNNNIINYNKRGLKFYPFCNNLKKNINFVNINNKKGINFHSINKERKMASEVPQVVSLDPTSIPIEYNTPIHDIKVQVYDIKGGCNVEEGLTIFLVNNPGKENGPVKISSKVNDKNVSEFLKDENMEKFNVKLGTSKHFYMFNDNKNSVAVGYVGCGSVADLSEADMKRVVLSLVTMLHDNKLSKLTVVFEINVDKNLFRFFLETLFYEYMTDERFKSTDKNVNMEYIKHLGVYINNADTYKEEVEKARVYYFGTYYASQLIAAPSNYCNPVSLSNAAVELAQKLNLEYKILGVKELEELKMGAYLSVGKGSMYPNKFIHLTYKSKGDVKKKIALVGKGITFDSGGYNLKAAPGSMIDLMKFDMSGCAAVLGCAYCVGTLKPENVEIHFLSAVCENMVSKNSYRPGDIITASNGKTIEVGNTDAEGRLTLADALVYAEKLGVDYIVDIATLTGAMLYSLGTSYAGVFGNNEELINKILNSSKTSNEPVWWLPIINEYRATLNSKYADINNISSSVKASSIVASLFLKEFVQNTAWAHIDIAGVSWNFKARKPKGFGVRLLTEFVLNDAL
Nature of the test: P. falciparum M17LAP inhibitors, primary screen, biochemical, fluorogenic H-Leu-NHMec substrate, 1536-well (AID 1619). Format: functional.

The target of another test is Major prion protein (Homo sapiens, UniProt P04156). Format: functional, cell-based.
A short description of test [7]: cells.
Test [8] in a line: cytotoxicity in melanoma parental cells – cell-based, CellTiter-Glo, dry powder, set 6, MITF inhibitor project, dose response (AID 624429). Format: functional, SK-MEL-5. (In general: Cellular ATP, detected with luciferase, serves as a proxy for viable cell number.)
Test [9] in a line: melanocyte viability loss, MITF-dependent cells, cell-based, plate reader, dry powder, cytotoxicity control, dose response (AID 651920). The format is functional.
Test [10] in a line: viability loss in MITF-independent A375 cells – cell-based, CellTiter-Glo luminescence, dry powder, set 7, counter-screen for MITF inhibitor project, dose response (AID 624490). To be noted: A-375. The format is functional.
Test [11] can be described thus: viability loss in MITF-independent A375 cells – cell-based, CellTiter-Glo luminescence, dry powder, set 6, counter-screen for MITF inhibitor project, dose response (AID 624488). The format is functional.
Test [12] in a line: MITF Orthogonal Assay: SK-MEL-5 CTG Assay Measured in Cell-Based System Using Plate Reader - 2084-02_Inhibitor_Dose_DryPowder_Activity_Set5. The format is functional.
A short description of test [13]: viability loss in MITF-independent A375 cells – cell-based, CellTiter-Glo luminescence, dry powder, set 2, counter-screen for MITF inhibitor project, dose response (AID 624489).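 Note: actives are compounds lowering A375 viability meaning general cytotoxicity.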 Format: functional. To be noted: A-375.
Another test has as its target Nonstructural protein 1 (Influenza A virus, UniProt Q194T2). The format is functional, Influenza A virus (A/California/07/2009(H1N1)).
A short description of test [14]: cytotoxicity in MITF-independent A375 cells – cell-based, CellTiter-Glo luminescence, dry powder, set 4, counter-screen for MITF inhibitor project, dose response (AID 624364).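 Note: A375 melanoma cells are MITF independent so this is a counter screen.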 Format: functional. To be noted: A-375.
The nature of test [15]: cytotoxicity in MITF-independent A375 cells – cell-based, CellTiter-Glo luminescence, dry powder, set 9, counter-screen for MITF modulator project, dose response (AID 651591). Format: functional. Conditions: A-375.
The nature of test [16]: MITF Measured in Cell-Based System Using Plate Reader - 2084-01_Inhibitor_Dose_DryPowder_Activity_Set6. The format is functional.
A further test has as its system INS1. The test can be described thus: INS-1E survival protection against cytokine death – cell-based, luminescence, retest, dose response (AID 449756).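 Note: cell death triggered by IL-1 beta plus TNF-alpha plus IFN-gamma mixture; protective hits raise ATP signal compared with cytokine alone wells.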 Format: functional. To be noted: Rattus norvegicus.
In test [17] the target is T2, Calpain-2 catalytic subunit (Sus scrofa, UniProt P43367).
T2 sequence (P43367 whole entry): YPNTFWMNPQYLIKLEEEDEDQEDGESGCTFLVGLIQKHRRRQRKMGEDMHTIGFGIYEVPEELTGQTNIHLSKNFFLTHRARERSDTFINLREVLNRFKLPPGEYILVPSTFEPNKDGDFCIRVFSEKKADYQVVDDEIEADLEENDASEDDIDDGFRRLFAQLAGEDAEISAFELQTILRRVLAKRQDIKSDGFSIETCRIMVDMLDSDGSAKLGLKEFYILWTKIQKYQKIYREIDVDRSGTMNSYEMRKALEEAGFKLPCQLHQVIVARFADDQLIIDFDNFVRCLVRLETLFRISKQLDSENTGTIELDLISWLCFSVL
The test can be described thus: m-calpain protease blockers, concentration series – biochemical, fluorogenic peptide substrate, dose response (AID 1420). The format is functional.

For test [18], the target named is T3, Heat shock factor protein 1 (Mus musculus, UniProt P38532).
T3 sequence (P38532 whole entry): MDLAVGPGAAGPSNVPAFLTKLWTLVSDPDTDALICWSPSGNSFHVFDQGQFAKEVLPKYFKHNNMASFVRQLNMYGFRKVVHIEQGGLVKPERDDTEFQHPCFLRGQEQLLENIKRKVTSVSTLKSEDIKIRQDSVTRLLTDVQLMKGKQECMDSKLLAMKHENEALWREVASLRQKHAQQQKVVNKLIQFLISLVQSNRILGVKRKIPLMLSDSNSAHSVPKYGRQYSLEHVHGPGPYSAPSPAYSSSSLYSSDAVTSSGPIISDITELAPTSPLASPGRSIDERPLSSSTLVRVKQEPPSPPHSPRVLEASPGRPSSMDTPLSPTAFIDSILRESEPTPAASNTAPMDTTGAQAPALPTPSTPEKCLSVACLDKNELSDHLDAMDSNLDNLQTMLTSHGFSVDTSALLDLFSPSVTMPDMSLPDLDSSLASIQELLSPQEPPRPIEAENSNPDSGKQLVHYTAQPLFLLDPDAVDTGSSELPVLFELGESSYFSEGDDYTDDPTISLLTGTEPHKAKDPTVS
Nature of the test: enhancement of HSF1-driven luciferase signal – cell-based, NIH3T3, luminescence, dose retest, confirmation (AID 435004).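 Note: stress induced by proteasome inhibitor MG132 added 30 min after compound; luciferase reporter driven by HSF1 response element in NIH3T3 cells; actives raise luminescence as potentiators of the MG132 stress response.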 Format: functional.

Test [19] addresses T4, Low molecular weight phosphotyrosine protein phosphatase (Homo sapiens, UniProt P24666).
T4 sequence (P24666 whole entry): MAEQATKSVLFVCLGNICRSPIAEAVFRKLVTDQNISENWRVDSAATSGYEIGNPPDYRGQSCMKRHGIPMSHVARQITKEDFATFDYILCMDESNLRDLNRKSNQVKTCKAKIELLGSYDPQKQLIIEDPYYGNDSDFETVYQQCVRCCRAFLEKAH
Nature of the test: inhibition of human LMPTP enzyme activity – biochemical, absorbance, pNPP substrate, LMPTP-A isoform, set 2, orthogonal assay, dose response (AID 743308). Format: functional.

Test [20] concerns the target T4, Low molecular weight phosphotyrosine protein phosphatase. Nature of the test: inhibition of LMPTP-A enzymatic activity – biochemical, OMFP substrate, fluorescence intensity, set 2, dose response (AID 743307). The format is functional.
The nature of test [21]: HIV-1 Vif–A3G interaction blockers – biochemical, TR-FRET, GST-Vif 1-94, biotin-A3G peptide, dose response retest, primary screen (AID 1117319).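 Note: TR-FRET signal of purified GST-Vif binding a biotinylated A3G peptide; inhibitors lower the FRET signal by blocking Vif and A3G binding.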 The format is functional. For orientation: TR-FRET usually uses a lanthanide donor and a delayed reading to cut background.
The target in a further test is Protein Tat (Human immunodeficiency virus type 1 group M subtype B (isolate HXB2)(HIV-1), UniProt P04608). Format: functional.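 Note: tat binding to TAR RNA read out by fluorescence polarization.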
Test [22] is described as follows: growth inhibition of PfATP4-mutant resistant parasites – NITD609-resistant line, SYBR Green, dry powder, dose response (AID 1159571).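 Note: parasites synchronized at ring stage by sorbitol before testing.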 The format is functional, cell-based.
Test [23] is described as follows: Dd2 malaria parasite growth inhibition potency – SYBR Green, dry powder samples, dose response (AID 1159566).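 Note: potency for growth inhibition with lower SYBR green DNA signal.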 Format: functional, cell-based.
Test [24] is described as follows: growth inhibition of yeast DHODH-expressing 3D7 parasites – SYBR Green, dry powder samples, dose response (AID 1159570).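 Note: parasite growth measured after 72 hours of compound exposure.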 The format is functional, cell-based.
Test [25] in a line: toxicity to human HepG2 hepatoma cells – cell-based, plate reader, dry powder samples, cytotoxicity control, dose response (AID 1159569).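 Note: inhibitor potency with signal falling toward the positive control level.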 Format: functional.

In the case of `CCN(CC)CCNC(C(=O)OCCC(C)C)c1ccccc1` (stereo not given) [CAMYLOFIN], the IC50 in “cells [1]” was > 33.3 µM (inactive); in test [2], 24.8 µM (inactive).
As for `N#Cc1ccc(-c2ccc([C@H]3[C@@H]4CN(C(=O)C5CCCC5)C[C@H]3N4)cc2)cc1`, the results for the AC50 in test [3] and in [4] were 7.4 µM (active) and > 39 µM (inactive), respectively.
`O=C(/C=C/c1ccccc1)N1CCN(S(=O)(=O)c2ccc(F)cc2)CC1`: the values for the IC50 (in test [5]; on Beta-galactosidase) were 0.626 µM (active) and > 80 µM (inactive), respectively.
Take `N#Cc1c(O)nc(SCC(=O)Nc2cccc(Cl)c2)nc1-c1ccco1`: the IC50 in [6] is 29.7 µM (not active); on Leucine aminopeptidase, 2.5 µM (active); at Major prion protein, 1.69 µM (active); in “cells [7]”, > 138 µM (inactive).
For `O=C1C=C(Nc2ccccc2)C(=O)c2ccccc21`, the AC50 in [8] (SK-MEL-5) was 2.37 µM (active); in [8] (sk-mel-5) it was 1.93 µM (active); in test [9] it was > 70 µM (inactive); in test [10], > 70 µM (inactive); in test [11], > 70 µM (inactive); in test [11] (A-375), 51.5 µM (active). Further, the half-maximal activity concentration (AC50) in test [12] (SK-MEL-5) is 1.53 µM (active); in test [12] (sk-mel-5), 1.18 µM (active); in test [13], > 70 µM (inactive); in test [14], > 70 µM (inactive); in [15] it was > 70 µM (inactive); in test [16], 7.24 µM (active) and 5.31 µM (active). In addition, in the test with INS1, the half-maximal activity concentration (AC50) is 3.97 µM (active). Moreover, the figures for the 50% inhibitory concentration (IC50) (at Nonstructural protein 1; in test [17]) were 81.7 µM (active) and 6.16 µM (not active), respectively. Further, in [18], the EC50 was 1.26 µM (active).
On to `c1ccc(-c2nc(N3CCCC3)c3ccccc3n2)cc1`, for which the IC50 in test [19] is > 80 µM (inactive); in test [20] it was 42.1 µM (inactive).
On to `COc1cc(/C=C(\CC(=O)O)c2nc3ccccc3s2)cc(OC)c1O`, for which the IC50 (in test [21]; at Protein Tat) was > 100 µM (active) each time.
Regarding `Cc1ccc(S(=O)(=O)N(C)C[C@H]2OCc3ccccc3-c3c(n(C)c4ccccc34)C(=O)N([C@@H](C)CO)C[C@H]2C)cc1`, the AC50 in test [3] is 2.23 µM (active); in [22], 2.63 µM (active); in test [23], 2.01 µM (active); in [24] it was 3.19 µM (active); in [25], 9.17 µM (active).
